The text below walks through data of ChEMBL document CHEMBL4190194, “Dudawalamides A-D, Antiparasitic Cyclic Depsipeptides from the Marine Cyanobacterium Moorea producens” (J Nat Prod, 2017).

Numbered stars: 1 amine (or outer) side, 2 acyl side, 3 side chain; on linkers, the order of the positions; unused ones are H or OH. Bridge positions count the residues as written; N and C are the ends. Square brackets hold non-standard residues; d marks the D form. Peptide text beside a SMILES is read from it. ξ: configuration not given here. X1 = C#CCCC[C@H](O[*:2])C(C)(C)C(=O)[*:1]; Hmp(2R,3S) = CC[C@H](C)[C@@H](O)C(=O)O; NMeF = CN[C@@H](Cc1ccccc1)C(=O)O; ξNMeF = CNC(Cc1ccccc1)C(=O)O; NMeV = CN[C@H](C(=O)O)C(C)C; Hiv = CC(C)[C@H](O)C(=O)O; ξNMeV = CNC(C(=O)O)C(C)C; ξP = O=C(O)C1CCCN1 Bounds are passed on as bounds.

One series has as its system Plasmodium falciparum. Nature of the series: Antimalarial activity against chloroquine-resistant Plasmodium falciparum W2 infected in human type A positive erythrocytes by [3H]-hypoxanthine incorporation assay. The series is classed as functional, organism-based.
The next series deals with NCI-H460. Nature of the series: Cytotoxicity against human H460 cells at 30 uM after 48 hrs by MTT assay. The series is classed as cell-based. The conditions noted are these: nci-h460, 48 h. On the technique in general: Tetrazolium assays rely on reduction of a dye to a coloured formazan, in cell work by metabolically active cells.
A further series has as its system Leishmania donovani. The experiment in a line: Antileishmanial activity against Leishmania donovani WR2801 axenic amastigotes after 6 days by XTT assay. The series is classed as functional, organism-based. Conditions: WR2801, 144 h.
A further series concerns Trypanosoma cruzi. Nature of the series: Antitrypanosomal activity against transgenic beta-galactosidase-expressing Trypanosoma cruzi Tulahuen clone C4 ATCC PRA33 assessed as growth inhibition at 10 ug/ml after 4 days relative to control. The series is classed as functional. Conditions: Tulahuen clone C4 ATCC PRA33, 96 h, read-out: GI.

By IC50 is commonly meant the point on the concentration scale where inhibition reaches its midpoint. A lower IC50 goes with greater potency. Take `C#CCCC[C@@H]1OC(=O)[C@H](C)NC(=O)[C@H](Cc2ccc(OC)cc2)N(C)C(=O)[C@@H]2CCCN2C(=O)[C@H](Cc2ccccc2)N(C)C(=O)[C@H](C(C)C)NC(=O)C1(C)C`: the figures for the IC50 in the series with Plasmodium falciparum and in the series with Leishmania donovani were 8 µM and more than 10 µM, respectively. Moreover, in the series with NCI-H460, the Activity entry is on record as “Non-Toxic”. The inhibition of growth at 10 µg/mL in the series on Trypanosoma cruzi stood at 7%.

In the case of `C#CCCC[C@H]1OC(=O)CNC(=O)[C@@H](Cc2ccccc2)N(C)C(=O)[C@@H]2CCCN2C(=O)[C@H]([C@@H](C)CC)N(C)C(=O)[C@H](C)NC(=O)[C@H](C)OC(=O)C1(C)C`, the IC50 with Plasmodium falciparum is 3.6 µM; with Leishmania donovani, more than 10 µM. For the same compound, in the series on NCI-H460, the Activity entry is recorded as “Non-Toxic”. The inhibition of growth at 10 µg/mL in the series with Trypanosoma cruzi turned out to be 12%.

For the compound `C#CCCC[C@@H]1OC(=O)CNC(=O)[C@H](Cc2ccccc2)N(C)C(=O)[C@@H]2CCCN2C(=O)[C@@H]([C@@H](C)CC)OC(=O)[C@H](C(C)C)N(C)C(=O)[C@H](C(C)C)NC(=O)C1(C)C` (V[NMeV][Hmp(2R,3S)]P[NMeF]G; linker N-C via X1), the IC50 came out at 3.5 µM in the series on Plasmodium falciparum and 2.6 µM in the series on Leishmania donovani. In addition, in the series on NCI-H460, the Activity result is “Non-Toxic”. Also, the inhibition of growth at 10 µg/mL in the series with Trypanosoma cruzi is 60%.

In the series with Plasmodium falciparum, `C#CCCC[C@@H]1OC(=O)CNC(=O)C(Cc2ccccc2)N(C)C(=O)C2CCCN2C(=O)[C@H](C(C)C)OC(=O)C(C(C)C)N(C)C(=O)[C@H](C(C)C)NC(=O)C1(C)C` (some centres undefined) (V[ξNMeV][Hiv][ξP][ξNMeF]G; linker N-C via X1) registered an IC50 of 10 µM. In addition, in the series on NCI-H460, the Activity entry was “Non-Toxic”.
